For 57 compounds, melting point results are on record in a melting point compilation (Tetko et al.).

Residues, ends and D or L forms follow the SMILES beside them. *: point of attachment. Trt = c1ccc(C(c2ccccc2)(c2ccccc2)*)cc1; Boc = CC(C)(C)OC(=O)*; Bn = c1ccc(C*)cc1; NHNH2 = NN*

`CC(=O)OCC(CNC(=O)c1c(I)c(C(=O)NCC(COC(C)=O)OC(C)=O)c(I)c(N2CCCC(Br)C2=O)c1I)OC(C)=O` (configuration not stated) had a melting point of 232 to 235 °C.

`CCCCCCCCCCSc1c(SCCCCCCCCCC)c(SCCCCCCCCCC)c(C(O)=NCCO)c(C(=O)O)c1SCCCCCCCCCC` yielded a melting point of 57 to 58 °C.

In turn, `CC1(C)CC(O)(C#N)CC(C)(C)N1` yielded a melting point of 129 to 132 °C.

Take `CCC(Br)=C1NC(=O)N(C(C(=O)Nc2cc(NC(=O)C(CC)Oc3ccc(C(C)(C)CC)cc3C(C)(C)CC)ccc2Cl)C(=O)c2ccc(OC)cc2)C1=O` (configuration not stated): the melting point is 112 to 114 °C.

With `CC1(C)CC(Nc2nc(N(C3CC(C)(C)NC(C)(C)C3)C3CC(C)(C)NC(C)(C)C3)nc(N(C3CC(C)(C)NC(C)(C)C3)C3CC(C)(C)NC(C)(C)C3)n2)CC(C)(C)N1`, the melting point fell in the range of 318 to 320 °C.

As to `CCC1=C(C#N)c2cc3c(c(O)c2CC1)C(=O)c1c(O)cccc1C3=O`, the melting point lay within 227 to 228 °C.

Turning to `CCc1nc(OC)c(NC(=O)N2CCN(c3cc(OC)cc(OC)c3)CC2)cc1C(=O)NC(C)C(=O)Nc1cc(CO)cc(Nc2c3ccccc3nc3ccccc23)c1` (configuration not stated), the melting point fell in the range of 231 to 233 °C.

For `CCCCCCC1(CCCCCC)c2cc(-c3ccc4c(c3)nc(N)c3nc(COCC)n(CC(C)(C)O)c34)ccc2-c2ccc(-c3ccc4c(c3)nc(N)c3nc(COCC)n(CC(C)(C)O)c34)cc21`, the melting point is 261 to 265 °C.

Compound `CC(C)CCCC(C)C1CCC2C3CC=C4CC(N(CCCNC(=O)CCNC(=O)CCCCCNc5ccc([N+](=O)[O-])cc5[N+](=O)[O-])S(=O)(=O)c5ccccc5[N+](=O)[O-])CCC4(C)C3CCC12C` (configuration not stated) returned a melting point of 86 to 87 °C.

As for `Cc1cccc(-c2sc(N)nc2-c2ccnc(-c3ccc(CN4CCOCC4)cc3)c2)n1`, the melting point was 236 °C.

For the compound `O=C1OC(O)c2cccc(F)c21` (configuration not stated), the melting point lay within 126 to 127 °C.

With `Cc1ccc(-c2c(-c3ccc(S(N)(=O)=O)cc3)[nH]c3ccccc23)cc1C`, the melting point is 251 to 253 °C.

Take `O=S(=O)(C(/C=C/c1ccc(I)cc1)c1ccc(Br)cc1)C(/C=C/c1ccc(I)cc1)c1ccc(Br)cc1` (configuration not stated): the melting point lay in the range of 201 to 203 °C.

As for `COc1cc(OC)c(/C=C/C(c2ccc(OC)c(NC(=O)C(C)(C)OC(C)=O)c2)S(=O)(=O)C(/C=C/c2c(OC)cc(OC)cc2OC)c2ccc(OC)c(NC(=O)C(C)(C)OC(C)=O)c2)c(OC)c1` (configuration not stated), the melting point fell in the range of 148 to 150 °C.

`Cc1ccc(Cl)cc1C(N)=NO` came in with a melting point of 111 to 113 °C.

In turn, `Nc1ncnc2c1c(I)cn2COC(O)CCO` (configuration not stated) registered a melting point of 177 to 178 °C.

`CCCCCCc1cc(C=C2C(=O)N(CC(CC)CCCC)C(=O)C(C#N)=C2C)sc1-c1ccc(-c2ccc(-c3sc(-c4ccc(N(c5ccccc5)c5ccccc5)cc4)cc3CCCCCC)s2)s1` (configuration not stated): the melting point lay within 153 to 158 °C.

For `CC[C@H](C)[C@H](NC(=O)N(C)Cc1ccccn1)C(=O)NC(Cc1ccccc1)C(O)C(O)C(Cc1ccccc1)NC(=O)[C@@H](NC(=O)N(C)Cc1ccccn1)[C@@H](C)CC` (some centres not stated), the melting point lay within 160 to 161 °C.

As for `CCCc1nc(OC)c(NC(=O)N2CCN(c3cc(OC)cc(OC)c3)CC2)cc1C(=O)NC(C)C(=O)Nc1cc(CO)cc(Nc2c3ccccc3nc3ccccc23)c1` (configuration not stated), the melting point lay in the range of 220 to 222 °C.

`OCCOc1ccc(-c2ccc(OCCO)cc2)cc1` returned a melting point of 201 to 202 °C.

On to `CC(=O)OCC(CNC(=O)c1c(I)c(C(=O)NCC(COC(C)=O)OC(C)=O)c(I)c(N2C(=O)COCC2COC(C)=O)c1I)OC(C)=O` (configuration not stated), for which the melting point fell in the range of 210 to 212 °C.

Compound `C=C(C)C(=O)Nc1ccc2ncnc(Nc3cccc(Br)c3)c2c1` came in with a melting point of 244 to 245 °C.

Compound `CCCCCCCCCCCCCCCC(=O)OCC(COC(=O)CCCCCCCCCCCCCCC)OC(=O)CCCC(=O)Oc1cc(Cl)ccc1Oc1ccc(Cl)cc1Cl` had a melting point of 44 to 46 °C.

As for `CCOc1cc(C(=O)N2CCC(CCN3CCC(C(=O)c4nc5ccccc5n4Cc4ccc(F)cc4)CC3)(c3ccc(OC)c(OC)c3)C2)cc(OCC)c1OCC` (configuration not stated), the melting point was 139 to 141 °C.

In turn, `CCCCC1(CC)CS(=O)(=O)c2ccc(N(C)C)cc2C(c2cccc(NC(=O)COCCOCC(=O)NCc3ccc(N4C(=O)C(CCC(O)c5ccc(F)cc5)C4c4ccc(OC)cc4)cc3)c2)C1O` (configuration not stated) returned a melting point of 116 to 125 °C.

Compound `COc1cc(OC)c(C=CC(c2ccc(OC)c(NC(=O)CCl)c2)S(=O)(=O)C(C=Cc2c(OC)cc(OC)cc2OC)c2ccc(OC)c(NC(=O)CCl)c2)c(OC)c1` (configuration not stated) had a melting point of 163 to 165 °C.

Turning to `Cc1cccc(-c2sc(N)nc2-c2ccc([N+](=O)[O-])c(O)c2)n1`, the melting point is 260 to 262 °C.

With `Cc1ccc(S(=O)(=O)N2CCOCCN(S(=O)(=O)c3ccc(C)cc3)CCN(S(=O)(=O)c3ccc(C)cc3)CCN(S(=O)(=O)c3ccc(C)cc3)CC2)cc1`, the melting point fell in the range of 198 to 201 °C.

In turn, `CC(C)(C)c1cc(SC(CCCC(Sc2cc(C(C)(C)C)c(O)c(C(C)(C)C)c2)Sc2cc(C(C)(C)C)c(O)c(C(C)(C)C)c2)Sc2cc(C(C)(C)C)c(O)c(C(C)(C)C)c2)cc(C(C)(C)C)c1O` returned a melting point of 148 to 153 °C.

`[C-]#[N+]Cc1nc2ccccc2o1` gave a melting point of 57 to 57.5 °C.

The compound `CC(NC(=O)C(Cc1ccc(OCc2ccccc2)cc1)NC(=O)C(COCc1ccccc1)NC(=O)C(Cc1c[nH]c2ccccc12)NC(=O)OC(C)(C)C)C(=O)O` (configuration not stated) (Boc-WS(Bn)Y(Bn)A-OH; configuration not given here) yielded a melting point of 93 to 94 °C.

For the compound `CCc1cn(C2OC(CNC(=O)C(C)Oc3cc(OC)c(Br)cc3Br)C(OC(=O)C(NC(=O)OC(C)(C)C)C(C)C)C2F)c(=O)[nH]c1=O` (configuration not stated), the melting point lay within 101 to 111 °C.

The compound `CC1=C(CC(=O)O)c2cc(C#N)ccc2C1=Cc1ccc(S(C)=O)cc1` (configuration not stated) came in with a melting point of 160 to 165 °C.

`CCC(Cc1c(I)cc(I)c(NC(=O)CN2CCN(CC(=O)O)CCN(CC(=O)O)CCN(CC(=O)O)CC2)c1I)C(=O)O` (configuration not stated) came in with a melting point of 230 °C.

`CCC1(O)CC(OC2CC(N(C)C)C(OC3CC4OC5CC(=O)C(C)OC5OC4C(C)O3)C(C)O2)c2c(cc3c(c2O)C(=O)c2c(O)cccc2C3=O)C1C(=O)OC` (configuration not stated) displayed a melting point of 161 °C.

`CN=S(=O)(NC(=O)Nc1nc(OC)cc(OC)n1)c1ccccc1Br` (configuration not stated) gave a melting point of 120 to 125 °C.

For `CCCCCCCCCCCCCCCCCCCCCCCCCC(C)=CCCC(C)=CCCC(C)=CCCC(C)=CCCC(C)=CCCC(C)=CCCC(C)=CCCC(C)=CCCC(C)=CCOC(=O)C1CCCCC1`, the melting point lay in the range of 34 to 35 °C.

On to `CC(C)CC(NC(=O)OC(C)(C)C)C(=O)NCC(=O)NCC(=O)NC(C)C(=O)NCC(=O)NC(CSC(c1ccccc1)(c1ccccc1)c1ccccc1)C(=O)NC(CCCCNC(=O)OC(C)(C)C)C(=O)NC(CC(N)=O)C(=O)NC(Cc1ccccc1)C(=O)NC(Cc1ccccc1)C(=O)NN` (configuration not stated) (Boc-LGGAGC(Trt)K(Boc)NFF-NHNH2; configuration not given here), for which the melting point is 239 to 242 °C.

`CCCCCCCCCCCCCCCCCCN(CCCCCCCCCCCCCCCCCC)C(=O)c1cc(NS(=O)(=O)c2cnc(Cl)c(OC)c2)c2ccccc2c1O` registered a melting point of 85 to 87 °C.

The compound `CC(C)c1cc(C(C)C)c(CC(=O)NS(=O)(=O)Oc2c(C(C)C)cc(C(=O)[C@H](CCCCNC(=O)OC(C)(C)C)NC(=O)OC(C)(C)C)cc2C(C)C)c(C(C)C)c1` came in with a melting point of 167 to 171 °C.

The compound `O=P(O)(O)CN(CP(=O)(O)O)CP(=O)(O)O` had a melting point of 215 °C.

Compound `CS(C)(=O)=NC(=O)c1cc(Oc2ccc(C(F)(F)F)cc2Cl)ccc1[N+](=O)[O-]` displayed a melting point of 122 °C.

For the compound `O=C(O)CCCOc1c(Cl)cccc1Cl`, the melting point was in the range of 66 to 67 °C.

Turning to `CC(C)(C)c1cc(SC(Sc2cc(C(C)(C)C)c(O)c(C(C)(C)C)c2)C(Sc2cc(C(C)(C)C)c(O)c(C(C)(C)C)c2)Sc2cc(C(C)(C)C)c(O)c(C(C)(C)C)c2)cc(C(C)(C)C)c1O`, the melting point is 221 to 223 °C.

`O=Cc1ccc(OC(F)F)c(O)c1` gave a melting point of 82 to 83 °C.

For `FC(F)(F)C(F)(F)C(F)(F)C(F)(F)C(F)(F)C(F)(F)C(F)(F)C(F)(F)CCC1(CCC(F)(F)C(F)(F)C(F)(F)C(F)(F)C(F)(F)C(F)(F)C(F)(F)C(F)(F)F)c2cc(Br)ccc2-c2ccc(Br)cc21`, the melting point fell in the range of 130 to 131 °C.

For `NS(=O)(=O)c1cccc(-c2noc(-c3cnn4ccc(-c5ccc(C(F)(F)F)cc5)nc34)n2)c1`, the melting point was 270 °C.

`O=C(Oc1cccc2c(OC(=O)c3ccc(OCc4ccccc4)cc3)c3c(OC(=O)c4ccc(OCc5ccccc5)cc4)cccc3cc12)c1ccc(OCc2ccccc2)cc1`: the melting point is 240 to 242 °C.

The compound `Cc1ccc(Cc2cc(OCCCCCCCCCCCCP(=O)(O)O)ccc2S(=O)(=O)c2ccc(OCCCCCCCCCCCCP(=O)(O)O)cc2Cc2ccc(C)cc2)cc1` showed a melting point of 148 to 150 °C.

In turn, `Nc1ncc(Br)cc1[N+](=O)[O-]` had a melting point of 209 °C.

In turn, `CCCCOC(=O)c1ccc(=O)[nH]n1` yielded a melting point of 79 to 80 °C.

`C[Si](C)(C)CCS(=O)(=O)N=S(=O)(c1ccc(N)cc1)C1CC1` (racemic) had a melting point of 137 to 138 °C.

Compound `O=C(Cc1cc(I)c(Oc2cc(I)c(OCC3CO3)c(I)c2)c(I)c1)OCC1CO1` (configuration not stated) showed a melting point of 116 °C.

`CC(=O)OC(CN1C(=O)C2(CC(C)(C)N(C(C)=O)C(C)(C)C2)OC12CCCCCCCCCCC2)CN1C(=O)C2(CC(C)(C)N(C(C)=O)C(C)(C)C2)OC12CCCCCCCCCCC2` had a melting point of 122 °C.

In turn, `C=C(C)[C@@H]1CC[C@]2(C(=O)N[C@H]3C[C@@H](C(=O)N4CCCCC4)C3(C)C)CC[C@]3(C)[C@H](CC[C@@H]4[C@@]5(C)CC[C@H](OC(=O)[C@@H]6C[C@H](C(=O)O)C6(C)C)C(C)(C)[C@@H]5CC[C@]43C)[C@@H]12` showed a melting point of 258 to 269 °C.

`CC(C)[C@H](NC(=O)N(C)Cc1csc(NC(=O)OC(C)(C)C)n1)C(=O)N[C@@H](Cc1ccccc1)C[C@H](O)[C@H](Cc1ccccc1)NC(=O)[C@@H](NC(=O)N(C)Cc1csc(NC(=O)OC(C)(C)C)n1)C(C)C` gave a melting point of 115 to 120 °C.

`COc1cc2c3c(ccc4c5ccc6c7c(cc(OC)c(c1c34)c75)-c1ccccc1C6C#C[Si](C(C)C)(C(C)C)C(C)C)C(C#C[Si](C(C)C)(C(C)C)C(C)C)c1ccccc1-2` (configuration not stated) returned a melting point of 295 to 298 °C.

One may read the melting point as the temperature, or range, at which the solid turns liquid.
